# The source made the active and inactive calls. No cut-off for these calls is given here.
# Target: T1, Glutamate--cysteine ligase catalytic subunit (Mus musculus) (UniProt P97494)
# T1 sequence (whole entry): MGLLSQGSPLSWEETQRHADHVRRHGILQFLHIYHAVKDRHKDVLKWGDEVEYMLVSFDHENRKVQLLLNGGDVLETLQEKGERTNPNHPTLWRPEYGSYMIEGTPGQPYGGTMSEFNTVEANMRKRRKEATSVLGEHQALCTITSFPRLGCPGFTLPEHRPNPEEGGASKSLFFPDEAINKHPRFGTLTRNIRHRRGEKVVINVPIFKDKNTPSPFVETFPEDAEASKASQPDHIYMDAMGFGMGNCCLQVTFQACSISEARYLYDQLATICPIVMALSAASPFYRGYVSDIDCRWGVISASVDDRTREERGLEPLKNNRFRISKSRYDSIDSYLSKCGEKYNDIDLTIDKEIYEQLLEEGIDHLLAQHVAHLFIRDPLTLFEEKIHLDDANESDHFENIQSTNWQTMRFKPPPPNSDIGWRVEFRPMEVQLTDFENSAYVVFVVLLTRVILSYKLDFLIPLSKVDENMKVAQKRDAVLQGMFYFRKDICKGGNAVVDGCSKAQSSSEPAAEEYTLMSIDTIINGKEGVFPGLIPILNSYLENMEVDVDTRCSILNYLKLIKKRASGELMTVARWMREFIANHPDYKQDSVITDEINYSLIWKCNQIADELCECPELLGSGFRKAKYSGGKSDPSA
# Assay: Inhibition of Mus musculus (mouse) glutamate cysteine ligase isolated from liver at 200 uM
row,inhibition,Structure (SMILES)
1,18%,CO[C@@H]1[C@H]2OC(C)(C)O[C@H]2O[C@@H]1[C@H](CC(N)=O)N(Cc1ccccc1)C(=O)Nc1cccc(C(C)=O)c1
2,inactive,CO[C@@H]1[C@H]2OC(C)(C)O[C@H]2O[C@@H]1[C@@H]1CC(=O)N(Cc2ccccc2)C(=O)N1Cc1ccccc1

# Target: T2, Glutathione reductase, mitochondrial (Mus musculus) (UniProt P47791)
# T2 sequence (whole entry): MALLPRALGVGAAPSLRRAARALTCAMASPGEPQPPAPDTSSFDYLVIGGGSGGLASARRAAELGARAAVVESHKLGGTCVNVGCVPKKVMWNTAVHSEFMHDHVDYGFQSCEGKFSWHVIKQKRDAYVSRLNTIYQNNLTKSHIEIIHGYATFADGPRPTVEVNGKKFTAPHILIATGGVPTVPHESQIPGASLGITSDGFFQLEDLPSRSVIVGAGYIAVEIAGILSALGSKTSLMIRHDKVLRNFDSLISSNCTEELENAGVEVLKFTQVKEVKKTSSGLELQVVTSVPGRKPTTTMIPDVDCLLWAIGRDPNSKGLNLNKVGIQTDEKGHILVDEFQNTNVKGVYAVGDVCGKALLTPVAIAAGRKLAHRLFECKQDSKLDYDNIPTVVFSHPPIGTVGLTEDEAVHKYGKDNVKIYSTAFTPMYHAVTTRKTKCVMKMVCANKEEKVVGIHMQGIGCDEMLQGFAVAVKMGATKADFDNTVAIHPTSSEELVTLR
# Assay: Inhibition of Mus musculus (mouse) glutathione reductase isolated from liver at 200 uM
row,inhibition,Structure (SMILES)
1,inactive,CCOC(=O)C[C@H](C[C@H]1O[C@@H]2OC(C)(C)O[C@@H]2[C@H]1OC)NCc1ccccc1O
2,inactive,CCCCCCCNC(CC(=O)O)[C@@H]1O[C@@H]2OC(C)(C)O[C@@H]2[C@H]1OC (stereo partly drawn)
3,inactive,CCCc1nccn1C(CC(=O)OCC)[C@H]1O[C@@H]2OC(C)(C)O[C@@H]2[C@H]1OC (stereo partly drawn)
4,inactive,CO[C@@H]1[C@H]2OC(C)(C)O[C@H]2O[C@@H]1C1CC(=O)N(Cc2ccccc2)C(=O)N1CCC(C)CC(C)C (stereo partly drawn)
5,inactive,CC1(C)O[C@H]2O[C@H](C(CC(=O)NO)NCc3ccccc3)[C@H](OCc3ccccc3)[C@H]2O1 (stereo partly drawn)
6,inactive,CCOC(=O)C[C@@H](Nc1ccccc1O)[C@H]1O[C@@H]2OC(C)(C)O[C@@H]2[C@H]1OC
7,inactive,CCOC(=O)CC([C@H]1O[C@@H]2OC(C)(C)O[C@@H]2[C@H]1OC)N1CCC[C@H]1C(=O)OCC1c2ccccc2-c2ccccc21 (stereo partly drawn)
8,inactive,CCCCCCCN[C@@H](CC(=O)OCC)[C@@H]1O[C@@H]2OC(C)(C)O[C@@H]2[C@H]1OC
9,inactive,CCOC(=O)CC(Nc1ccco1)[C@H]1O[C@@H]2OC(C)(C)O[C@@H]2[C@H]1OCc1ccccc1 (stereo partly drawn)
10,inactive,CC1(C)O[C@H]2O[C@H]([C@@H]3CC(=O)N(Cc4ccccc4)C(=O)N3Cc3ccccc3)[C@H](OCc3ccccc3)[C@H]2O1
11,inactive,COc1ccc(CN2C(=O)N(c3ccc(C(C)=O)cc3)C(=O)C[C@H]2[C@H]2O[C@@H]3OC(C)(C)O[C@@H]3[C@H]2OCc2ccccc2)cc1
12,71%,CCCCCCCCCCCCCCCCNC(CC(=O)NO)[C@H]1O[C@@H]2OC(C)(C)O[C@@H]2[C@H]1OC (stereo partly drawn)
13,inactive,CO[C@@H]1[C@H]2OC(C)(C)O[C@H]2O[C@H]1C(CC(=O)O)NCCC(C)CC(C)C (stereo partly drawn)
14,inactive,CCOC(=O)CC(Nc1ccco1)[C@H]1O[C@@H]2OC(C)(C)O[C@@H]2[C@H]1OC (stereo partly drawn)
15,inactive,CCCCCCCCCCCCNC(CC(=O)NO)[C@H]1O[C@@H]2OC(C)(C)O[C@@H]2[C@H]1OCc1ccccc1 (stereo partly drawn)
16,inactive,CCCCCCCNC(CC(=O)NO)[C@H]1O[C@@H]2OC(C)(C)O[C@@H]2[C@H]1OCc1ccccc1 (stereo partly drawn)
17,inactive,CC(=O)c1cccc(N2C(=O)[C@H](CC(C)C)N(C[C@H]3O[C@@H]4OC(C)(C)O[C@@H]4[C@H]3OCc3ccccc3)C2=O)c1
18,inactive,CC1(C)O[C@H]2O[C@H](C(CC(=O)NO)N3CCCCC3)[C@H](OCc3ccccc3)[C@H]2O1 (stereo partly drawn)
19,inactive,CCOC(=O)CC([C@H]1O[C@@H]2OC(C)(C)O[C@@H]2[C@H]1OC)N(CCC(C)CC(C)C)C(=O)NCc1ccccc1 (stereo partly drawn)

# Target: T3, Probable glutathione reductase 2 (Caenorhabditis elegans) (UniProt P30635)
# T3 sequence (whole entry): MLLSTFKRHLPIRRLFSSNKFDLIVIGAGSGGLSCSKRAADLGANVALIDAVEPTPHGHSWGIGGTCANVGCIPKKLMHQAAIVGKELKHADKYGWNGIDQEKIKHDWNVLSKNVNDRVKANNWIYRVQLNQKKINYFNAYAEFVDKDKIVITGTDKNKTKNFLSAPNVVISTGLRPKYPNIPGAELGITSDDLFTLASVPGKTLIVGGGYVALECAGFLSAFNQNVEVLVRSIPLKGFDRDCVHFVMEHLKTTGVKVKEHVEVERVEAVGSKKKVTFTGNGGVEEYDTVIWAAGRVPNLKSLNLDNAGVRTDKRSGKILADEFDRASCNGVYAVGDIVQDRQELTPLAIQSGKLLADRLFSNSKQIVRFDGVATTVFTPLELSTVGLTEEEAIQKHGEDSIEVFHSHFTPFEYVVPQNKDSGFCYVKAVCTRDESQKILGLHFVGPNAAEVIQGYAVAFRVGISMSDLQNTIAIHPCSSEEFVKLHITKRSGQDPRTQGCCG
# Assay: Inhibition of Setaria cervi glutathione reductase at 2 to 200 uM
row,inhibition,Structure (SMILES)
1,24%,CN(C)c1ccc2nc3ccc(=[N+](C)C)cc-3sc2c1

# Target: T4, Glutamate--cysteine ligase (Onchocerca volvulus) (UniProt Q9NFN6)
# T4 sequence (whole entry): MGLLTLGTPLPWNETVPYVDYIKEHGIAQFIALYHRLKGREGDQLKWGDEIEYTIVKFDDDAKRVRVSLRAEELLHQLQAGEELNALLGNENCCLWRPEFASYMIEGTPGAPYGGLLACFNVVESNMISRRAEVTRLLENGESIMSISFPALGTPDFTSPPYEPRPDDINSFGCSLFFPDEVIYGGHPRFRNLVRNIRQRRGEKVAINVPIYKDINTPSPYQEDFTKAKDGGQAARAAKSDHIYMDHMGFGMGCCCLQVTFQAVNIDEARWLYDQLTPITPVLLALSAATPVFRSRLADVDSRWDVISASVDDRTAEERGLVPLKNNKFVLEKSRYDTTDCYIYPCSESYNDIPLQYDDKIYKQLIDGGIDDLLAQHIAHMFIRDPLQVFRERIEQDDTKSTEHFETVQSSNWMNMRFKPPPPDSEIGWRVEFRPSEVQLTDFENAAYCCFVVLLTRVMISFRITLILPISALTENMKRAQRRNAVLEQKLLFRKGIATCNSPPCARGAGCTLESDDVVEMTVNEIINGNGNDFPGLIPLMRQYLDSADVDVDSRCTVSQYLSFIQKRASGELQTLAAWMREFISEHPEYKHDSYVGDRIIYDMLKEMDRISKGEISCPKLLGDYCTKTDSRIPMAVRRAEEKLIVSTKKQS
# Assay: Inhibition of Setaria cervi glutamate cysteine ligase at 0.25 to 200 uM
row,inhibition,Structure (SMILES)
1,19%,NCCSSCCN
